What was measured:
CDR1 mRNA = type: cell-based, human; conditions: Lycorine 5 μM, others 1 μM, 24 h, vs DMSO
Method: Expression levels of CDR1 mRNA change independently of miR-671-5p or CDR1as in primary HCFs upon treatment with Bufalin, Gitoxigenin, Lycorine, Anisomycin and Geldanamycin. HCFs were incubated for 24 h with Bufalin (1 μM), Gitoxigenin (1 μM,) Lycorine (5 μM), Anisomycin (1 μM) and Geldanamycin (1 μM) and impact on CDR1 mRNA level (normalized to GAPDH) by the respective compound was validated via qRT-PCR (see FIG. 23).

[1] = tested on: primary human cardiac fibroblasts (HCFs); test: Proliferation of primary human cardiac fibroblasts, BrdU-ELISA; type: cell-based; conditions: 24 h; for proliferation of primary HCFs: 0.1, 1, 10 μM (Lycorine 1, 5, 10 μM), DMSO control; for proliferation of HCFs (derivative screen): 10 μM, DMSO solvent control
Method: HCFs were incubated with 0.1 μM, 1 μM and 10 μM Bufalin, Gitoxigenin, Anisomycin and Geldanamycin as well as with 1 μM, 5 μM and 10 μM Lycorine for 24 h and proliferation of HCFs was measured by BrdU-ELISA (see FIG. 1). Due to major drawbacks as a drug candidate, Geldanamycin was not included in the follow-up studies, in particular in the in vivo experiments.
HCFs and HL-1 cells were treated with Bufalin, Gitoxigenin, Lycorine and Anisomycin for 24 h with the same concentrations as indicated in Example 1 and proliferation of HCFs and cardiomyocyte cell line HL-1 cells was measured by BrdU-ELISA, DMSO refers as a control (see FIG. 2B, 3B, 4B, 5B). The cell proliferation ELISA is a colorimetric alternative to quantitate cell proliferation based on the measurement of BrdU incorporation during DNA synthesis in proliferating cells. After its incorporation into DNA, BrdU is detected by immunoassay by using antibodies being highly specific for BrdU. First, HCFs and/or HL-1 cells are cultured together with various dilutions of test substances (e.g. mitogens, growth factors, cytokines and test compounds such as Bufalin, Gitoxigenin, Lycorine and Anisomycin as mentioned above etc.) in a 96-well in a final volume of 100 μl/well in a humified atmosphere of 37° C. Afterwards, 10 μl/well BrdU labeling solution is added to the cells being cultured in 100 μl/well (final concentration: 10 μM BrdU). Then, cells were re-incubated for additional 2 to 24 h at 37° C. Next, labeling solution is removed and 200 μl/well FixDenat is added to the cells and incubated for 30 min at 15 to 25° C. Then, 100 μl/well anti-BrdU-POD working solution is added and incubated for approximately 90 min, after FixDenat is removed. Next, antibody conjugate is removed and wells are washed with 200 μl-300 μl/well Washing solution (PBS, 1×). After the washing solution is removed, 100 μl/well Substrate solution is added and it is incubated again until color development is sufficient for photometric detection. Further, HCFs were treated with said compounds (Lycorine: 5 μM, Bufalin: 1 μM, Gitoxigenin: 1 μM and Anisomycin: 1 μM) for 24 h as indicated again and subjected to FACS analysis after Annexin-7AAD-staining (see FIG. 2C, 3C, 4C, 5C). After the treatment with said compounds, annexin-7AAD-staining starts with inducing apoptosis in HCFs by a desired method, known to the person skilled in the art, a negative control (w/o induction and staining) and a positive control (f. ex. 500 μM H2O2 or 3 μM Staurosporin) is also needed. Then, the medium with HCFs is transferred into a falcon, washed with PBS and trypsinized. Everything is centrifuged for 5 min at 300×g and then the supernatant is aspirated. The pellet is re-suspended in 200 μl Annexin Red/7AAD Working Solution (1:20, 5 μl Annexin Red/7AAD+195 μl 1× Assay Buffer) and transferred into an Easy Cap Eppendorf tube. After incubation of 15 min at 37° C., it is centrifuged at room temperature (RT) for 5 min at 300×g. Then, the supernatant is aspirated, the pellet washed once with 200 μl 1× Assay Buffer and centrifuged again at RT for 5 min at 300×g. Again, the supernatant is aspirated and the pellet is re-suspended in 200 μl Annexin Red/7AAD working solution and incubated again at RT for 5 min in the dark. Samples are now ready for acquisition on a flow cytometer (blue and red laser).
The cells were incubated for 24 h with 10 μM Bufalin and Lycorine and with 10 μM derivatives of Bufalin (derivatives 3, 5, 6, 7, 8, 9, 10, 11, 12, 13, 14, 16, 17, 18 and 25) and Lycorine (derivative 1, 2, 4, 15, 19, 20, 21, 22, 23, 24 and 26). Then, proliferation of HCFs was measured by BrdU-ELISA (see FIG. 31).

Row | SMILES | expression levels of CDR1 mRNA (normalized to GAPDH) (CDR1 mRNA) | proliferation of primary HCFs [1] | proliferation of HCFs (derivative screen) [1]
1 | COc1ccc(C[C@H]2NC[C@H](O)[C@H]2OC(C)=O)cc1 [Anisomycin] | decrease | Dose-dependent inhibitory effects | –
2 | C[C@]12CC[C@H](O)C[C@H]1CC[C@@H]1[C@@H]2CC[C@]2(C)[C@@H](c3ccc(=O)oc3)CC[C@]12O [Bufalin] | decrease | Dose-dependent inhibitory effects | proliferation is prevented
3 | C[C@]12CC[C@H](O)C[C@H]1CC[C@@H]1[C@@H]2CC[C@]2(C)[C@@H](C3=CC(=O)OC3)[C@@H](O)C[C@]12O [Gitoxigenin] | decrease | Dose-dependent inhibitory effects | –
4 | O[C@H]1[C@H]2c3cc4c(cc3CN3CCC(=C[C@@H]1O)[C@H]23)OCO4 [Lycorine] | decrease | Dose-dependent inhibitory effects | proliferation is prevented

— US11185539B2 (priority 2017, dated 2021)
